Measured values published in US4806540A, “1-heteroaryl-4-aryl-pyrazole microbicides” (Bayer Aktiengesellschaft, priority 1985, dated 1989).
In brackets after ≈: the same amount, converted by molar mass.

What was measured:
Pyricularia oryzae = type: in vivo, Pyricularia oryzae (on young rice plants); conditions: protective, rice plants; evaluation 4 days after inoculation
[1] = test system: fungi: Alternaria tenuis, Aspergillus niger, Aureobasidium pullulans, Chaetomium globosum, Cladosporium cladoporioides, Lentinus tigrinus, Penicillium glaucum …; test: Minimum inhibitory concentrations (MIC), activity against fungi (agar); type: cell-based; conditions: agar from beer wort and peptone; 28° C., 60 to 70% humidity, 2 weeks; 0.1 mg/l to 5,000 mg/l
Method: Active compounds according to the invention are added in concentrations of 0.1 mg/l to 5,000 mg/l to an agar prepared from beer wort and peptone. After storage at 28° C. and 60 to 70% relative atmospheric humidity for 2 weeks, the MIC is determined. […] Good actions of the listed test organisms are shown, for example, by the compounds according to Preparation Examples 2, 6a, 12a, 9b, 24 and 25: […]

Escherichia coli = test: Action against bacteria, MIC (agar); type: cell-based; conditions: 336 h, agar containing broth, 28° C., 2 weeks
Method: (§1) The nutrient medium is then infected with in each case the test organisms listed in Table C and the infected medium is kept at 28° C. and 60 to 70% relative atmospheric humidity for 2 weeks. […] The compounds according to Preparation Examples 2, 6a, 12a, 9b, 13 and 14 show good actions.

Staphylococcus aureus = test: Action against bacteria, MIC (agar); type: cell-based; conditions: 336 h, agar containing broth, 28° C., 2 weeks
Method: as §1

bacteria = test: Action against bacteria (test organisms of Table C), result in words; type: cell-based, Escherichia coli, Staphylococcus aureus; conditions: 1 to 5,000 ppm; agar containing broth, 28° C., 2 weeks
Method: as §1

Question: Which results are given for `CC(=O)n1cc(-c2ccccc2)c(=O)n1-c1ncccn1` [Example 2, 1-Pyrimid-2-yl-2-acetyl-4-phenyl-pyrazol-5-one]?
Answer: activity compared with the prior art (Pyricularia oryzae): clearly superior activity compared with the prior art; action against the listed test organisms (fungi) [1]: Good actions; MIC (Escherichia coli): 750 µg/mL (≈ 2680 µM); MIC (Staphylococcus aureus): 1000 µg/mL (≈ 3570 µM); action against bacteria (bacteria): good actions

Question: How did the MIC (Escherichia coli) turn out when `CS(=O)(=O)n1cc(-c2ccccc2)c(=O)n1-c1ccccn1` [Example 24, 1-pyrid-2-yl-2-methylsulphonyl-4-phenyl-pyrazolin-5-one] was run?
Answer: Its MIC is 50 µg/mL (≈ 159 µM).

Question: And the MIC (Staphylococcus aureus)?
Answer: The MIC was 50 µg/mL (≈ 159 µM).

Question: What does the source list for `O=c1c(-c2ccccc2)cn(S(=O)(=O)c2ccccc2)n1-c1ccccn1` [Example 25]?
Answer: action against the listed test organisms (fungi) [1]: Good actions; MIC (Escherichia coli): 1000 µg/mL (≈ 2650 µM); MIC (Staphylococcus aureus): 20 µg/mL (≈ 53 µM)

Question: “mixture of 1-pyrid-2-yl-2-acetyl-4-phenyl-pyrazolin-5-one and 1-pyrid-2-yl-4-phenyl-5-acetoxypyrazole [Example 1]” was tested. Which “activity compared with the prior art” value (Pyricularia oryzae) did it give?
Answer: The value was “clearly superior activity compared with the prior art”.
